In US20230085307A1, “PYRIDAZINONE COMPOUND AND HERBICIDE” (NISSAN CHEMICAL CORPORATION, priority 2019, published 2023):

Assays:
late watergrass = assay: Test Example 1: herbicidal activity, application before weed generation under submerged conditions (Table 16, symbol A); type: in vivo, late watergrass (Echinochloa oryzicola); details: 320 g/ha applied herbicide
In short: (§1)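 Alluvial soil was flooded to 4 cm depth, weed seeds were sown mixed and 2.5-leaf rice seedlings were transplanted. On sowing day, the compound's emulsion, diluted in water to a set dose, was applied to the water surface. Plants grew at 25–30 °C and were scored 0–5 after three weeks.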

oval-leafed pondweed = assay: Test Example 1: herbicidal activity, application before weed generation under submerged conditions (Table 16, symbol C); type: in vivo, oval-leafed pondweed (Monochoria vaginalis); details: 320 g/ha applied herbicide
In short: as §1

Japanese bulrush = assay: Test Example 2: herbicidal activity, application during weed generation under submerged conditions (Table 17, symbol B); type: in vivo, Japanese bulrush (Schoenoplectus juncoides); details: AAH 320 g/ha; application during weed generation, submerged conditions
In short: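 Alluvial soil in Wagner pots was flooded to 4 cm depth and sown with the three weeds together; pots were kept in a greenhouse at 25° C. to 30° C. At the one to two leaf stage, an emulsion formulation diluted in water to a set rate went onto the water surface; scored three weeks later.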

barnyard grass [1] = assay: Test Example 3: herbicidal effect by foliage application, Wagner pot (Table 18, symbol H); type: in vivo, barnyard grass (Echinochloa crus-galli); details: amount of applied herbicide 320 g/ha
In short: (§2)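 Plants were sown in alluvial soil held under 0.1–0.5 cm standing water and grown 14 days in a greenhouse at 25–30 °C. An emulsifiable formulation, water-diluted to the set dose, was then sprayed onto the foliage, and effects were scored three weeks later using previously defined criteria.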

rice flat sedge = assay: Test Example 3: herbicidal effect by foliage application, Wagner pot (Table 18, symbol E); type: in vivo, rice flat sedge (Cyperus iria); details: amount of applied herbicide 320 g/ha
In short: as §2

green foxtail = assay: Test Example 4: herbicidal effect by soil treatment (Table 19, symbol G); type: in vivo, green foxtail (Setaria viridis); details: amount of applied herbicide 320 g/ha
In short: (§3)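 Soil-surface application: an emulsion agent diluted with water to the predetermined dose is sprayed uniformly over seeds lying under roughly 1.5 cm of sterilized diluvial soil. Boxes stay in a greenhouse at 25° C. to 30° C. Three weeks later, each species is graded on previously defined criteria.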

barnyard grass [2] = assay: Test Example 4: herbicidal effect by soil treatment (Table 19, symbol H); type: in vivo, barnyard grass (Echinochloa crus-galli); details: amount of applied herbicide 320 g/ha
In short: as §3

velvetleaf = assay: Test Example 4: herbicidal effect by soil treatment (Table 19, symbol M); type: in vivo, velvetleaf (Abutilon theophrasti); details: amount of applied herbicide 320 g/ha
In short: as §3

redroot pigweed = assay: Test Example 4: herbicidal effect by soil treatment (Table 19, symbol N); type: in vivo, redroot pigweed (Amaranthus retroflexus); details: amount of applied herbicide 320 g/ha
In short: as §3

chickweed = assay: Test Example 4: herbicidal effect by soil treatment (Table 19, symbol P); type: in vivo, common chickweed (Stellaria media); details: amount of applied herbicide 320 g/ha
In short: as §3

persian speedwell [3] = assay: Test Example 4: herbicidal effect by soil treatment (Table 19, symbol R); type: in vivo, Persian speedwell (Veronica persica); details: amount of applied herbicide 320 g/ha
In short: as §3

southern crabgrass = assay: Test Example 5: herbicidal effect by foliage application, plastic box (Table 20, symbol F); type: in vivo, southern crabgrass (Digitaria ciliaris); details: foliage application, 320 g/ha, evaluated three weeks after application
In short: (§4)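 Sow seeds spot-wise in sterilized diluvial soil; cover with ~1.5 cm soil. Grow 14 days in greenhouse, 25° C. to 30° C. Spray foliage with emulsion diluted to predetermined amount. Rate effect after 3 weeks.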

barnyard grass [4] = assay: Test Example 5: herbicidal effect by foliage application, plastic box (Table 20, symbol H); type: in vivo, barnyard grass (Echinochloa crus-galli); details: foliage application, 320 g/ha, evaluated three weeks after application
In short: as §4

wild oat = assay: Test Example 5: herbicidal effect by foliage application, plastic box (Table 20, symbol I); type: in vivo, wild oat (Avena fatua); details: foliage application, 320 g/ha, evaluated three weeks after application
In short: as §4

blackgrass = assay: Test Example 5: herbicidal effect by foliage application, plastic box (Table 20, symbol J); type: in vivo, blackgrass (Alopecurus myosuroides); details: foliage application, 320 g/ha, evaluated three weeks after application
In short: as §4

persian speedwell [5] = assay: Test Example 5: herbicidal effect by foliage application, plastic box (Table 20, symbol R); type: in vivo, Persian speedwell (Veronica persica); details: foliage application, 320 g/ha, evaluated three weeks after application
In short: as §4

SMILES	Herbicidal effect on A: late watergrass (grade 0-5) (late watergrass)	Herbicidal effect on C: oval-leafed pondweed (grade 0-5) (oval-leafed pondweed)	herbicidal effect rating, B: Japanese bulrush (Japanese bulrush)	herbicidal effect on H: barnyard grass (barnyard grass [1])	herbicidal effect on E: rice flat sedge (rice flat sedge)	G: green foxtail, herbicidal effect rating (green foxtail)	H: barnyard grass, herbicidal effect rating (barnyard grass [2])	M: velvetleaf, herbicidal effect rating (velvetleaf)	N: redroot pigweed, herbicidal effect rating (redroot pigweed)	P: chickweed, herbicidal effect rating (chickweed)	R: persian speedwell, herbicidal effect rating (persian speedwell [3])	herbicidal effect on F: southern crabgrass (criteria 0-5) (southern crabgrass)	herbicidal effect on H: barnyard grass (criteria 0-5) (barnyard grass [4])	herbicidal effect on I: wild oat (criteria 0-5) (wild oat)	herbicidal effect on J: blackgrass (criteria 0-5) (blackgrass)	herbicidal effect on R: persian speedwell (criteria 0-5) (persian speedwell [5])
CCc1ccc(-c2sc3ccc(F)cc3c2-c2c(O)c(C)nn(C)c2=O)cc1 [2-207]	2 (Herbicidal rate of 20% or more and less than 40%)	3 (Herbicidal rate of 40% or more and less than 70%)	3 (Herbicidal rate of 40% or more and less than 70%)	4 (Herbicidal rate of 70% or more and less than 90%)	5 (Herbicidal rate of 90% or more (almost completely withered))	0 (Herbicidal rate of 5% or less (almost no effect))	2 (Herbicidal rate of 20% or more and less than 40%)	5 (Herbicidal rate of 90% or more (almost completely withered))	5 (Herbicidal rate of 90% or more (almost completely withered))	3 (Herbicidal rate of 40% or more and less than 70%)	5 (Herbicidal rate of 90% or more (almost completely withered))	4 (Herbicidal rate of 70% or more and less than 90%)	4 (Herbicidal rate of 70% or more and less than 90%)	3 (Herbicidal rate of 40% or more and less than 70%)	4 (Herbicidal rate of 70% or more and less than 90%)	5 (Herbicidal rate of 90% or more (almost completely withered))
Cc1nn(C)c(=O)c(-c2c(-c3cccc(OCC(C)C)c3)sc3ccc(F)cc23)c1O [2-221]	5 (Herbicidal rate of 90% or more (almost completely withered))	5 (Herbicidal rate of 90% or more (almost completely withered))	3 (Herbicidal rate of 40% or more and less than 70%)	5 (Herbicidal rate of 90% or more (almost completely withered))	5 (Herbicidal rate of 90% or more (almost completely withered))	5 (Herbicidal rate of 90% or more (almost completely withered))	5 (Herbicidal rate of 90% or more (almost completely withered))	4 (Herbicidal rate of 70% or more and less than 90%)	5 (Herbicidal rate of 90% or more (almost completely withered))	3 (Herbicidal rate of 40% or more and less than 70%)	5 (Herbicidal rate of 90% or more (almost completely withered))	5 (Herbicidal rate of 90% or more (almost completely withered))	5 (Herbicidal rate of 90% or more (almost completely withered))	5 (Herbicidal rate of 90% or more (almost completely withered))	5 (Herbicidal rate of 90% or more (almost completely withered))	5 (Herbicidal rate of 90% or more (almost completely withered))
